Laboratory results: US7175872B2, “Pyridinium-Betain compounds for use as taste modulators” (Nestec S.A., priority 2002, dated 2007)
Counter-ions that a name gives are not always drawn.

What was measured:
salty taste of NaCl [1] = experiment: Salt taste detection threshold of NaCl/Pyridinium-Betaine mixtures (triangle test, sensory panel); assay type: in vivo
Procedure: (§1) • Sensory panel training: […] Sensory analyses were performed in a sensory panel room at 22-25° C. on three different sessions. • Taste thresholds: The taste thresholds of the tastants or mixtures containing basic tastants plus Pyridinium-Betains were determined in a triangle test using Evian® mineral water as the solvent at a defined pH ([…] and H.-D. Belitz, Z. Lebensm. Unters. Forsch. 1975, 159, 65-72). The samples (3 mL) were presented in order of increasing concentrations (serial 1:1 dilutions). The threshold values evaluated in two different sessions were averaged. […] The taste intensities of aqueous (Evian®) solutions containing a basic tastant, such as glucose and MSG, for example, in constant concentrations and the compounds of the general formula (A), for example […], in various concentrations were compared with those of a solution containing the basic tastant only. […] The relative taste strength (taste enhancing factor) of a mixture containing the basic […] was related to the basic tastants glucose, MSG, or other tastants, respectively, as standard substances, and was determined as the ratio of the concentrations c of iso-intensely tasting solutions of the basic tastant, such as glucose (glc), and the mixture containing tastant plus Pyridinium-Betain, […])=[…] […] This taste enhancing effect is illustrated in examples.

salty taste of NaCl [2] = experiment: Salt-intensity ranking of NaCl/Pyridinium-Betaine mixtures by sensory panel; assay type: in vivo; conditions: 20 mmol/L each, pH 7.0; for Salt-intensity: scale 0 (not salty) to 5 (very salty), reference NaCl-solution ranked as 1
Text: The salt-intensities of various NaCl/Pyridinium-Betaine mixtures (20 mmol/L each) were compared to a 20 mmol/L NaCl standard solution. The sensory panel was asked to rank the salt-intensities of these solutions on a scale from 0 (not salty) to 5 (very salty), while the reference NaCl-solution was ranked as 1. As listed in Table 6, the most intense salty taste was found in the solution containing NaCl and Alapyridaine, as well as in the triple mixture with L-arginine. A slight impact was found for Argpyridaine and L-arginine.

[3] = system: bitter taste of L-phenylalanine; experiment: Bitter-blocking effect on L-phenylalanine (detection threshold, 1/1 mixtures); assay type: in vivo; conditions: for own taste: Pyridinium-Betaine alone; for Taste quality: conc. 32 mmol/L, mixtures 1/1 with L-Phe
Procedure: as §1, with “only. To achieve this, triangle tests were performed with two glass vials containing the basic tastant in constant concentrations, and one glass vial containing a stepwise 1:1-diluted mixture of basic […].” for “only.”, “examples. The tasteless Pyridinium-Betaines […] and Gabapyridaine, built from non-[…] amino acids, were tested for their bitter-blocking activity on L-phenylalanine.” for “examples.”

[4] = system: bitter taste of naringine; experiment: Bitter intensity ranking with Glypyridaine: naringine; assay type: in vivo; conditions: scale 0-5
Text: (§2) Instead of working with low concentrated solutions at the bitter threshold, another series of experiments use carried out using more concentrated solutions of various bitter compounds to evaluate the bitter-blocking properties of Pyridinium-Betaines based on non-chiral amino acids. […] The bitter-reducing effect was most pronounced with L-Phenylalanine, the dipeptide H-Gly-Leu-OH, and caffeine.

[5] = system: bitter taste of H-Gly-Leu-OH; experiment: Bitter intensity ranking with Glypyridaine: H-Gly-Leu-OH; assay type: in vivo; conditions: scale 0-5
Text: as §2, with “caffeine. For example the 10:1 mixture of L-Phenylalanine and […] was weaker in bitterness (score 3) as compared to pure L-Phenylalanine (score 5).” for “caffeine.”

[6] = system: bitter taste of coffee brew; experiment: Bitterness reduction of coffee with Glypyridaine; assay type: in vivo; conditions: coffee brew 40 g/L plus 2.0 mmol/L Glypyridaine; coffee alone 5; scale 0 (no bitterness) to 5 (very bitter)
bitter taste of caffeine = experiment: Bitter intensity ranking with Glypyridaine: caffeine; assay type: in vivo; conditions: scale 0-5
Text: as §2

[7] = system: bitter taste of L-phenylalanine; experiment: Bitter intensity ranking with Glypyridaine: L-Phenylalanine; assay type: in vivo
Text: as §2

bitter taste of salicine = experiment: Bitter intensity ranking with Glypyridaine: salicine; assay type: in vivo; conditions: scale 0-5
Text: as §2

bitter taste = conditions: in vivo; cited from earlier work

For `[Cl-].[Na+]` [NaCl, sodium chloride, reference compound], the “threshold of salt (NaCl) in water” value (salty taste of NaCl [1]; NaCl alone) was “^aThe threshold of salt (NaCl) in water is 10.0 mmol/L”, the Taste quality (salty taste of NaCl [1]; salt and mixtures with Alapyridaine enantiomers (Table 11), pH not stated) was “salty” and the Detection threshold (salty taste of NaCl [1]; salty, salt and mixtures with Alapyridaine enantiomers (Table 11), pH not stated) was 10.0 mmol/kg water. For the same compound, the Taste quality (salty taste of NaCl [2]) was “salty” and the Salt-intensity (salty taste of NaCl [2]) was 1.0.

In the case of `N=C(N)NCCC[C@H](N)C(=O)O` [L-Arginine (L-Arg), L-Arginine], the Salt-intensity (salty taste of NaCl [2]) is reported as 0.0.

In the case of `O=C([O-])CCC[n+]1cc(O)ccc1CO` [Gabapyridaine], the own taste [3] is reported as “tasteless” and the Taste quality ([3]; pH 7.0) is reported as “complete loss of the bitter taste”.

For `O=C([O-])C[n+]1cc(O)ccc1CO` [Glypyridaine, N-carboxymethyl-3-hydroxy-6-hydroxymethyl-pyridinium inner salt], the Bitter taste intensity ([4]; Naringine 0.06 mmol/L water, ratio to Glypyridaine 1:1) was 1, the Bitter taste intensity ([4]; Naringine 0.13 mmol/L water, ratio to Glypyridaine 1:1) was 2 and the Bitter taste intensity ([4]; Naringine 0.25 mmol/L water, ratio to Glypyridaine 1:1) was 3. For the same compound, the Bitter taste intensity ([5]; H-Gly-Leu-OH 30 mmol/L water, ratio to Glypyridaine 2:1) was 0.5, the Bitter taste intensity ([5]; H-Gly-Leu-OH 30 mmol/L water, ratio to Glypyridaine 10:1) was 2 and the Bitter taste intensity ([5]; H-Gly-Leu-OH 60 mmol/L water, ratio to Glypyridaine 2:1) was 1. The Bitter taste intensity ([5]; H-Gly-Leu-OH 60 mmol/L water, ratio to Glypyridaine 10:1) was 3, the Bitter taste intensity ([5]; H-Gly-Leu-OH 120 mmol/L water, ratio to Glypyridaine 10:1) was 4 and the “bitter taste intensity of coffee” value [6] was 2. It also gave a Bitter taste intensity (bitter taste of caffeine; Caffeine 4 mmol/L water, ratio to Glypyridaine 1:1) of 0.5, a Bitter taste intensity (bitter taste of caffeine; Caffeine 4 mmol/L water, ratio to Glypyridaine 5:1) of 1.5 and a Bitter taste intensity (bitter taste of caffeine; Caffeine 8 mmol/L water, ratio to Glypyridaine 1:1) of 1.5. The Bitter taste intensity (bitter taste of caffeine; Caffeine 8 mmol/L water, ratio to Glypyridaine 5:1) was 2, the Bitter taste intensity (bitter taste of caffeine; Caffeine 16 mmol/L water, ratio to Glypyridaine 1:1) was 2 and the Bitter taste intensity (bitter taste of caffeine; Caffeine 16 mmol/L water, ratio to Glypyridaine 5:1) was 3. For the same compound, the Salt detection threshold (salty taste of NaCl [1]; mixture with NaCl, pH 7.0) was 2.0 mmol/kg water, the Taste quality (salty taste of NaCl [1]; mixture with NaCl, pH 7.0) was “salty” and the Threshold decrease (salty taste of NaCl [1]; mixture with NaCl, pH 7.0, vs NaCl in water 10.0 mmol/L) was 5.0. It also gave a Bitter taste intensity ([7]; L-Phenylalanine 20 mmol/L water, ratio to Glypyridaine 1:1, scale 0-5) of 0, a Bitter taste intensity ([7]; L-Phenylalanine 20 mmol/L water, ratio to Glypyridaine 10:1, scale 0-5) of 0.5 and a Bitter taste intensity ([7]; L-Phenylalanine 40 mmol/L water, ratio to Glypyridaine 1:1, scale 0-5) of 0. The Bitter taste intensity ([7]; L-Phenylalanine 40 mmol/L water, ratio to Glypyridaine 10:1, scale 0-5) was 2, the Bitter taste intensity ([7]; L-Phenylalanine 80 mmol/L water, ratio to Glypyridaine 1:1, scale 0-5) was 0.5 and the Bitter taste intensity ([7]; L-Phenylalanine 80 mmol/L water, ratio to Glypyridaine 10:1, scale 0-5) was 3. It also gave a Bitter taste intensity (bitter taste of salicine; Salicine 0.8 mmol/L water, ratio to Glypyridaine 1:1) of 1, a Bitter taste intensity (bitter taste of salicine; Salicine 1.6 mmol/L water, ratio to Glypyridaine 1:1) of 2 and a Bitter taste intensity (bitter taste of salicine; Salicine 3.2 mmol/L water, ratio to Glypyridaine 1:1) of 3. For the same compound, the own taste [3] was “tasteless” and the Taste quality ([3]; pH 7.0) was “complete loss of the bitter taste”.

With `O=C([O-])CC[n+]1cc(O)ccc1CO` [β-Alapyridaine] the own taste [3] was “tasteless” and the Taste quality ([3]; pH 7.0) was “complete loss of the bitter taste”.

Work on `OCc1ccccc1O[C@@H]1O[C@H](CO)[C@@H](O)[C@H](O)[C@H]1O` [Salicine, reference compound] yielded a Bitter taste intensity (bitter taste of salicine; Salicine 0.8 mmol/L water, no Glypyridaine) of 3, a Bitter taste intensity (bitter taste of salicine; Salicine 1.6 mmol/L water, no Glypyridaine) of 4.5 and a Bitter taste intensity (bitter taste of salicine; Salicine 3.2 mmol/L water, no Glypyridaine) of 5.

`C[C@@H]1O[C@@H](O[C@H]2[C@H](Oc3cc(O)c4c(c3)O[C@H](c3ccc(O)cc3)CC4=O)O[C@H](CO)[C@@H](O)[C@@H]2O)[C@H](O)[C@H](O)[C@H]1O` [Naringine, reference compound] gave a Bitter taste intensity ([4]; Naringine 0.06 mmol/L water, no Glypyridaine) of 2.5, a Bitter taste intensity ([4]; Naringine 0.13 mmol/L water, no Glypyridaine) of 4 and a Bitter taste intensity ([4]; Naringine 0.25 mmol/L water, no Glypyridaine) of 5.

Compound H-Gly-Leu-OH [reference compound] has a Bitter taste intensity ([5]; H-Gly-Leu-OH 30 mmol/L water, no Glypyridaine) of 2.5, a Bitter taste intensity ([5]; H-Gly-Leu-OH 60 mmol/L water, no Glypyridaine) of 3.5 and a Bitter taste intensity ([5]; H-Gly-Leu-OH 120 mmol/L water, no Glypyridaine) of 5.

For `N[C@@H](Cc1ccccc1)C(=O)O` [L-Phenylalanine, reference compound], the Bitter taste intensity ([7]; L-Phenylalanine 20 mmol/L water, no Glypyridaine, scale 0 no bitterness to 5 strongly bitter) was 2, the Bitter taste intensity ([7]; L-Phenylalanine 40 mmol/L water, no Glypyridaine, scale 0-5) was 4 and the Bitter taste intensity ([7]; L-Phenylalanine 80 mmol/L water, no Glypyridaine, scale 0-5) was 5. The Taste quality ([3]; pH 7.0) was “bitter” and the Detection threshold ([3]; pH 7.0) was 16.0 mmol/L water.

In the case of `O=C1C=C(c2ccco2)C(CO)[n+]2cc([O-])c(Cc3ccco3)cc21` (stereo not drawn) [3-(2-furyl)-8-[(2-furyl)methyl]-4-hydroxymethyl-1-oxo-1H,4H-quinolizinium-7-olate], the “bitter taste detection threshold” value (bitter taste) is listed as 0.00025 mmol/kg water.
